Measured values from patent US20120276245A1, “METHOD FOR IMPROVED FERMENTATION” (STICHTING TOP INSTITUTE FOOD AND NUTRITION, priority 2009, published 2012).
Like-named read-outs stand apart in the source and are kept apart here.

Legend:
[1] = test system: pflA (pyruvate formate lyase gene); conditions: mixed culture supplemented with formic acid
Excerpt: (§1) Microarrays were spotted on the Agilent 8x 15K platform (Agilent Technologies, Santa Clara, Calif., USA) with a custom probe design (AMADID 015342) comprising the sequences of both S. thermophilus CNRZ1066 (released by NCBI, genbank accession no. NC 006449) and L. bulgaricus ATCC BAA-365 (released by JGI, genbank accession no. NC 008529). The probes were designed with the objective to minimize cross-hybridization: the probes were species-specific, i.e. all probes were designed as 60-mers with a target score of 100% to the target gene, allowing no binding of cDNA that is 1 base different (mismatch) if the correct hybridization temperature (65° C.) and washing temperature (37° C.) are used. In total there are 5438 probes representing 1899 genes of S. thermophilus and 4028 spots representing 1709 genes of L. bulgaricus. Most genes are represented by 3 probes or more. Only 55 genes in S. thermophilus and 77 in L. bulgaricus are represented by one probe and only 5 genes of S. thermophilus and 31 genes of L. bulgaricus are lacking. The selectivity of strain specific gene detection was tested by a series of transcriptome profiling experiments of samples from MRS-grown mono-cultures of both strains. […] They were excluded from further analysis.
(§2) The high protein content of milk and the polysaccharide production by the grown microorganisms make cell harvesting problematic. Furthermore, sampling and quenching need to be carried out rapidly in order to prevent the introduction of technical errors in a transcriptomics experiment. Several procedures have been developed to “clear” the milk to enable cell harvest by centrifugation without the contamination with milk solids. However, milk cleaning procedures are time consuming and require drastic changes in pH and the addition of large quantities of sodium citrate.

[2] = test system: pfl (pyruvate formate lyase gene); conditions: mixed culture supplemented with formic acid
Excerpt: as §1, §2

[3] = test system: genes involved in biosynthesis of purines and folic acid cycling; conditions: formic acid supplied, both species
Excerpt: as §1, §2

S. thermophilus = assay: Intervention study: acidification and growth of S. thermophilus mono-culture in reconstituted skim milk; assay type: cell-based, Streptococcus thermophilus; conditions: for Acidification by S. thermophilus: mono-culture in reconstituted skim milk, 37° C., 19 h, compounds listed in decreasing order of stimulation: formic acid, pyruvic acid, folic acid, Tween-20; for Growth of S. thermophilus in monoculture: in the absence of Lactobacillus bulgaricus
Procedure: (§3) Cultures of S. thermophilus, L. bulgaricus and a mixed culture were prepared in 0.8 volume reconstituted skim milk with 0.2 volume of a solution with compounds: Na-pyruvate (1.82 mM), Na-formate (1.47 mM), folic acid (1 mM), nucleobases (10 mg/L each) (all representing purine and pyrimidine metabolism), Tween-20 (105.9 μM) (as a supply of lauric acid), Tween-80 (110 mg/L) (as a supply of oleic acid). Here after these compounds are referred to as ‘interaction compounds’. The LCFAs oleic acid and lauric acid are poorly soluble and therefore we used Tween-20 and Tween-80. The effect of each of all interaction compounds on growth and acidification was tested in a single addition and a single omission strategy. Paired comparisons were made of a single compound versus nothing added (neg. control), and of all compounds minus one added versus all (pos. control). Acidification of quadruplicate cultures of 250 μL, was measured at 37° C. for 19 h in hydroplates (PreSens—Precision Sensing GmbH, Germany) where after CFU counts were determined using a rapid miniplating method (36). Significant differences in acidification were determined by comparing the maximal acidification rate using a two-tailed Students t-test (p=0.05). Similarly, significant differences were calculated between the final pH values and between the colony-forming units. A higher cell count, lower final pH, higher acidification rate and a shorter time to reach this rate are considered stimulatory effect of the intervention compared to the control.

[4] = test system: mixed culture of S. thermophilus and L. bulgaricus; assay: Intervention study: acidification of mixed culture in reconstituted skim milk; assay type: cell-based; conditions: 37° C., 19 h, stimulatory effects less than with the mono-cultures
Procedure: as §3, with “A higher cell count, lower final pH, higher acidification rate and a shorter time to reach this rate are considered stimulatory effect of the intervention compared to the control.” left out

L. bulgaricus = assay: Intervention study: acidification of L. bulgaricus mono-culture in reconstituted skim milk; assay type: cell-based, Lactobacillus delbrueckii subsp. bulgaricus; conditions: 37° C., 19 h
Procedure: as §3

Molecule | Expression of pflA down-regulated when formic acid was supplied [1] | Expression of pfl down-regulated when formic acid was supplied [2] | Expression of genes involved in biosynthesis of purines and folic acid cycling ([3]; early (second) exponential phase) | Expression of genes involved in biosynthesis of purines and folic acid cycling ([3]; mid exponential phase) | Acidification by S. thermophilus (S. thermophilus) | Acidification of the mixed cultures [4] | L. bulgaricus acidification (L. bulgaricus) | Growth of S. thermophilus in monoculture (S. thermophilus)
O=CO [formic acid] | 5.7 fold | 3.8 fold | lower | higher | stimulated | still stimulated | stimulated the most | 
Nc1nc2ncc(CNc3ccc(C(=O)N[C@@H](CCC(=O)O)C(=O)O)cc3)nc2c(=O)[nH]1 [folic acid] |  |  |  |  | stimulated |  | small stimulatory effect | stimulate growth
CC(=O)C(=O)O [pyruvic acid] |  |  |  |  | stimulated | still stimulated | small stimulatory effect | stimulate growth
Tween-20 |  |  |  |  | stimulated |  | small stimulatory effect | stimulate growth
Tween-80 |  |  |  |  |  |  | small stimulatory effect | 
